Results on 18 compounds are retold here after patent EP2857388A1, “Azoles containing sulfone” (Grünenthal GmbH, priority 2013, dated 2015).

The target in the first experiment is T1, human B1R (Homo sapiens, UniProt P46663).
T1 construct: expressed in transfected cells; host or cells: CHO K1 cells (Chinese Hamster Ovary), stably transfected
T1 sequence (P46663 1-353): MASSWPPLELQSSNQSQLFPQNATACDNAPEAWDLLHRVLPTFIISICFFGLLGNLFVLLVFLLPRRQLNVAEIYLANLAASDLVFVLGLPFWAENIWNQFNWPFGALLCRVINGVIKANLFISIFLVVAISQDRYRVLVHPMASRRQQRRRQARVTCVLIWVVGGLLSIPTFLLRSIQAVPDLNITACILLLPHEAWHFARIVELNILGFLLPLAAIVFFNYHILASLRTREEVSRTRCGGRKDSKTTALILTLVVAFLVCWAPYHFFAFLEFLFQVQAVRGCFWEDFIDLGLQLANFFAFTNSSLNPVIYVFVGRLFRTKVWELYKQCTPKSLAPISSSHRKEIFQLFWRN
Nature of the experiment: Functional assay at bradykinin receptor 1 (B1R): Ca2+ fluorescence (Fluo-4) in FLIPR/Novostar, antagonist mode. The format is cell-based. To be noted: test substance 10 µM; CHO K1 cells stably transfected with human B1R gene (hB1R-Zellen); agonist Lys-Des-Arg9-Bradykinin at EC80; % inhibition relative to maximal achievable inhibition. As to the method:
Die agonistische bzw. antagonistische Wirkung von Substanzen kann am Bradykinin Rezeptor 1 (B1R) der Spezies Mensch und Ratte mit ektopisch exprimierenden Zelllinien (CHO K1 Zellen) und mit Hilfe eines Ca^2+-sensitiven Farbstoffs (Fluo-4) im Fluorescent Imaging Plate Reader (FLIPR) quantifiziert werden. Die Angabe in % Aktivierung wird bezogen auf das Ca^2+-Signal nach Zugabe von Lys-Des-Arg^9-Bradykinin ([…]), bzw. Des-Arg^9-Bradykinin (100 nM). Antagonisten führen zu einer Unterdrückung des Ca^2+-Einstroms nach der Zugabe des Agonisten. Angegeben werden % Inhibition im Vergleich zu der maximal erreichbaren Inhibition.
Die agonistische bzw. antagonistische Wirkung von Substanzen kann am Bradykinin Rezeptor 1 (B1R) der Spezies Mensch und Ratte mit folgendem Assay bestimmt werden. Gemäß diesem Assay wird der intrazelluläre Ca^2+-Anstieg nach Gabe eines B1 R Agonisten mit Hilfe eines Ca^2+-sensitiven Farbstoffs (Typ Fluo-4, Molecular Probes Europe BV, Leiden NL) im Fluorescent Imaging Plate Reader (FLIPR, Molecular Devices, Sunnyvale, USA) und/oder im Novostar (BMG Labtech GmbH, Offenburg, DE) quantifiziert.
Es werden Chinese Hamster Ovary Zellen (CHO K1 Zellen) verwendet, die stabil mit dem humanen B1 R-Gen (hB1R-Zellen) bzw. dem B1 R-Gen der Ratte (rB1R-Zellen) transfiziert sind. Für funktionelle Untersuchungen werden diese Zellen auf schwarze 96-Loch-Platten mit klarem Boden (BD Biosciences, Heidelberg, DE oder Greiner, Frickenhausen, DE) in einer Dichte von 20.000 - 35.000 Zellen/Loch ausplattiert. Über Nacht werden die Zellen bei 37°C und 5 % CO2 in Kulturmedium (hB1 R-Zellen: Nutrient Mixture Ham's F12, Gibco Invitrogen GmbH, Karlsruhe, Deutschland oder DMEM, Sigma-Aldrich, Taufkirchen, Deutschland; rB1R-Zellen: D-MEM/F12, Gibco Invitrogen GmbH, Karlsruhe, DE) mit 10 Vol-% FBS (Fetal bovine serum, Gibco Invitrogen GmbH, Karlsruhe, DE oder PAN Biotech GmbH, Aidenbach, DE) belassen. Am folgenden Tag werden die Zellen mit 2,13 µM Fluo-4 (Molecular Probes Europe BV, Leiden, NL) in HBSS-Puffer (Hank's buffered saline solution, Gibco Invitrogen GmbH, Karlsruhe, DE) mit 2,5 mM Probenecid (Sigma-Aldrich, Taufkirchen, DE) und 10 mM HEPES (Sigma-Aldrich, Taufkirchen, DE) für 60 min bei 37°C beladen. Anschließend werden die Platten 2 x mit HBSS-Puffer gewaschen und mit HBSS-Puffer versetzt, der zusätzlich 0,1 % BSA (bovines Serumalbumin; Sigma-Aldrich, Taufkirchen, Deutschland), 5,6 mM Glucose und 0,05 % Gelatine (Merck KGaA, Darmstadt, DE) enthält. Nach einer weiteren Inkubation von 20 Minuten bei RT werden die Platten zur Ca^2+-Messung im FLIPR oder Novostar eingesetzt. Alternativ wird mit Puffer A (15 mM HEPES, 80 mM NaCl, 5 mM KCI, 1,2 mM CaCl2, 0,7 mM MgSO4, 2g/L Glucose, 2,5 mM Probenecid) gewaschen und mit Puffer A versetzt mit 2,5 µM Fluo-4 und 0,025 % Pluronic F127 (Sigma-Aldrich, Taufkirchen, DE) beladen. Danach werden die Zellen 2 x mit Puffer A gewaschen und für 30 Minuten mit Puffer A, der zusätzlich 0,05 % BSA und 0,05 % Gelatine enthält bei RT inkubiert und danach zur Ca^2+-Messung im FLIPR oder Novostar eingesetzt.
Die Ca^2+-abhängige Fluoreszenz wird dabei vor und nach Zugabe von Substanzen gemessen (λex = 488 nm, λem = 540 nm). Die Quantifizierung erfolgt durch die Messung der höchsten Fluoreszenzintensität (FC, Fluorescence Counts) über die Zeit.
Das FLIPR-Protokoll besteht aus 2 Substanzzugaben, die im FLIPR pipettiert werden. Bei Messungen im Novostar wird nur die zweite Substanzzugabe im Gerät pipettiert. Beide Geräte messen die Fluoreszenzintensität über die Zeit. Zunächst werden Testsubstanzen (10 µM) auf die Zellen pipettiert und der intrazelluläre Ca^2+-Anstieg mit der Kontrolle (hB1 R: Lys-Des-Arg^9-Bradykinin >= 50 nM; rB1 R: Des-Arg^9-Bradykinin >= 1 µM) verglichen. Daraus ergibt sich die Angabe in % Aktivierung bezogen auf das Ca^2+-Signal nach Zugabe von Lys-Des-Arg^9-Bradykinin (>= 50 nM), bzw. Des-Arg^9-Bradykinin (>=1 µM). Nach 6-20 Minuten Inkubation werden Lys-Des-Arg^9-Bradykinin (hB1 R) bzw. […]
Consider “N-[4-(Cyclopropylamino)-2,2-dimethyl-cyclohexyl]-2-[3-[[(2,3-dichlor-phenyl)sulfonyl]-methyl]-[1,2,4]oxadiazol-5-yl]-acetamid [CC-123]”, for which the “% Inhibierung (human B1R) bei 10 µM” value is on record as 99%.
Regarding “2-[3-[[(4-Chlor-2,5-dimethyl-phenyl)sulfonyl]-methyl]-[1,2,4]oxadiazol-5-yl]-N-cyclopropyl-N-(4-dimethylamino-cyclohexyl)-acetamid [CC-113]”, the “% Inhibierung (human B1R) bei 10 µM” value came out at 90%.
Regarding “N-[1-(4-Fluor-cyclohexyl)-3,3-dimethyl-piperidin-4-yl]-2-[3-[[(4-methoxy-2,6-dimethyl-phenyl)sulfonyl]-methyl]-[1,2,4]oxadiazol-5-yl]-acetamid [SC-48]”, the “% Inhibierung (human B1R) bei 10 µM” value was 100%.

The experiment is the same for the next values; noted with them: test substance 10 µM; CHO K1 cells stably transfected with human B1R gene (hB1R-Zellen); agonist Lys-Des-Arg9-Bradykinin at EC80; % inhibition relative to maximal achievable inhibition; read-out: % Inhibierung (human B1R) bei 10 µM.
`Cc1cccc(Cl)c1S(=O)(=O)Cc1noc(C(=O)NC2CCN(c3ccc(C(F)(F)F)cn3)CC2)n1` [CC-09, 3-[[(2-Chlor-6-methyl-phenyl)sulfonyl]-methyl]-N-[1-[5-(trifluormethyl)-pyridin-2-yl]-piperidin-4-yl]-[1,2,4]oxadiazol-5-carbonsäure amid]: the inhibition at 10 µM turned out to be 54%.
Regarding `COc1cc(C)c(S(=O)(=O)Cc2noc(CC(=O)N(C)C3CCC(N4CCN(C)CC4)CC3)n2)c(C)c1` (stereo not drawn) [SC-58, 2-[3-[[(4-Methoxy-2,6-dimethyl-phenyl)sulfonyl]-methyl]-[1,2,4]oxadiazol-5-yl]-N-methyl-N-[4-(4-methyl-piperazin-1-yl)-cyclohexyl]-acetamid], the inhibition at 10 µM stood at 100%.
For `COc1cc(C)c(S(=O)(=O)Cc2nc(CC(=O)NC3CCC(N4CCCC4)CC3)no2)c(C)c1` (stereo not drawn) [CC-32, 2-[5-[[(4-Methoxy-2,6-dimethyl-phenyl)sulfonyl]-methyl]-[1,2,4]oxadiazol-3-yl]-N-(4-pyrrolidin-1-yl-cyclohexyl)-acetamid], the inhibition at 10 µM worked out at 100%.
`COc1cc(C)c(S(=O)(=O)Cc2c(C)nn(CC(=O)NC3CCC(N4CCCC4)CC3)c2C)c(C)c1` (stereo not drawn) [CC-164, 2-[4-[[(4-Methoxy-2,6-dimethyl-phenyl)sulfonyl]-methyl]-3,5-dimethyl-1H-pyrazol-1-yl]-N-(4-pyrrolidin-1-yl-cyclohexyl)-acetamid]: the inhibition at 10 µM was determined as 100%.
As to `CN(C)C1CCC(N(C(=O)Cc2nc(CS(=O)(=O)c3cccc(Cl)c3Cl)no2)C2CC2)CC1` (stereo not drawn) [CC-112, N-Cyclopropyl-2-[3-[[(2,3-dichlor-phenyl)sulfonyl]-methyl]-[1,2,4]oxadiazol-5-yl]-N-(4-dimethyl-amino-cyclohexyl)-acetamid], the inhibition at 10 µM is 67%.
On to `Cc1cc(S(=O)(=O)Cc2noc(CC(=O)NC3CCC(c4ccncc4)CC3(C)C)n2)c(C)cc1Cl` (stereo not drawn) [CC-80, 2-[3-[[(4-Chlor-2,5-dimethyl-phenyl)sulfonyl]-methyl]-[1,2,4]oxadiazol-5-yl]-N-(2,2-dimethyl-4-pyridin-4-yl-cyclohexyl)-acetamid], for which the inhibition at 10 µM was 99%.
For `COc1cc(C)c(S(=O)(=O)Cc2noc(C(=O)N3CCC(CN4CCN(C)CC4)C3)n2)c(C)c1` (stereo not drawn) [SC-07, [3-[[(4-Methoxy-2,6-dimethyl-phenyl)sulfonyl]-methyl]-[1,2,4]oxadiazol-5-yl]-[3-[(4-methyl-piperazin-1-yl)-methyl]-pyrrolidin-1-yl]-methanon], the inhibition at 10 µM amounted to 100%.
Turning to `COc1cc(C)c(S(=O)(=O)Cc2cc(C)n(CC(=O)NC3CCC(NC4CC4)CC3(C)C)n2)c(C)c1` (stereo not drawn) [CC-177, N-[4-(Cyclopropylamino)-2,2-dimethyl-cyclohexyl]-2-[3-[[(4-methoxy-2,6-dimethyl-phenyl)sulfonyl]-methyl]-5-methyl-1 H-pyrazol-1-yl]-acetamid], the inhibition at 10 µM was 99%.
As to `COc1cc(C)c(S(=O)(=O)Cc2nc(CC(=O)NC3CCC(N(C)C)CC3)no2)c(C)c1` (stereo not drawn) [CC-28, N-(4-Dimethylamino-cyclohexyl)-2-[5-[[(4-methoxy-2,6-dimethyl-phenyl)sulfonyl]-methyl]-[1,2,4]oxadiazol-3-yl]-acetamid], the inhibition at 10 µM is 100%.
Regarding `COc1cc(C)c(S(=O)(=O)Cc2c(C)nn(CC(=O)N(C)[C@H]3CCC[C@@H](N4CCN(C)CC4)C3)c2C)c(C)c1` [SC-83, 2-[4-[[(4-Methoxy-2,6-dimethyl-phenyl)sulfonyl]-methyl]-3,5-dimethyl-1H-pyrazol-1-yl]-N-methyl-N-[(1S,3R)-3-(4-methyl-piperazin-1-yl)-cyclohexyl]-acetamid], the inhibition at 10 µM was 100%.
`COc1cc(C)c(S(=O)(=O)Cc2noc(CC(=O)N(C)C3CCN(Cc4cc(C)no4)CC3)n2)c(C)c1` [SC-72, 2-[3-[[(4-Methoxy-2,6-dimethyl-phenyl)sulfonyl]-methyl]-[1,2,4]oxadiazol-5-yl]-N-methyl-N-[1-[(3-methyl-isoxazol-5-yl)-methyl]-piperidin-4-yl]-acetamid]: the inhibition at 10 µM is 100%.
The same measure, in the same setting: with `COCCN1CCC(NC(=O)Cc2nc(CS(=O)(=O)c3cc(C)c(Cl)cc3C)no2)C(C)(C)C1` (stereo not drawn) [CC-77, 2-[3-[[(4-Chlor-2,5-dimethyl-phenyl)sulfonyl]-methyl]-[1,2,4]oxadiazol-5-yl]-N-[1-(2-methoxy-ethyl)-3,3-dimethyl-piperidin-4-yl]-acetamid] the figure was 80%; with `COc1cc(C)c(S(=O)(=O)Cc2nnc(C(=O)N3CCC(CN4CCN(C)CC4)C3)o2)c(C)c1` (stereo not drawn) [SC-86, [5-[[(4-Methoxy-2,6-dimethyl-phenyl)sulfonyl]-methyl]-[1,3,4]oxadiazol-2-yl]-[3-[(4-methyl-piperazin-1-yl)-methyl]-pyrrolidin-1-yl]-methanon], 100%; with `Cc1cc(S(=O)(=O)Cc2noc(C(=O)N3CCC(N4CCN(C)CC4)CC3)n2)c(C)cc1Cl` [CC-141, [3-[[(4-Chlor-2,5-dimethyl-phenyl)sulfonyl]-methyl]-[1,2,4]oxadiazol-5-yl]-[4-(4-methyl-piperazin-1-yl)-piperidin-1-yl]-methanon], 99%.
`COc1cc(C)c(S(=O)(=O)Cc2noc(C(=O)N(C)C3CCN(c4ccncc4F)CC3)n2)c(C)c1` [SC-82, N-[1-(3-Fluor-pyridin-4-yl)-piperidin-4-yl]-3-[[(4-methoxy-2,6-dimethyl-phenyl)sulfonyl]-methyl]-N-methyl-[1,2,4]oxadiazol-5-carbonsäure amid]: the inhibition at 10 µM worked out at 98%.
